According to patent US8546482B2, “Low odor compositions and low odor coating compositions” (Rohm and Haas Company, priority 2009, dated 2013):

Experiments:
Format in all cases: biochemical
N51032 [1] = experiment: Small molecule inhibitors, EA content of latex containing N51032; settings: N51032 5 ppm; for Effect of low inhibitor levels on enzyme activity (in words): inhibitor as low as 0.01% or even 0.001% (solid on wet latex); for EA content (column not headed): latex
CALBL = target: T1, CALBL (Moesziomyces antarcticus, UniProt P41365); experiment: Small molecule inhibitors, EA content of latex containing CALBL; set-up: EA content (column not headed): unit not given here; settings: for Effect of low inhibitor levels on enzyme activity (in words) / EA content (column not headed): CALBL 6 ppm; for Effect of low inhibitor levels on enzyme activity (in words): inhibitor as low as 0.01% or even 0.001% (solid on wet latex); for Inhibition of the carboxylesterase enzyme (in words): CALBL 60 ppm, inhibitor 1.0%; for EA content (column not headed): latex
T1 construct: purchased Novozymes, Bagsvaerd, Denmark Novozym CALB L
T1 sequence (P41365 26-342): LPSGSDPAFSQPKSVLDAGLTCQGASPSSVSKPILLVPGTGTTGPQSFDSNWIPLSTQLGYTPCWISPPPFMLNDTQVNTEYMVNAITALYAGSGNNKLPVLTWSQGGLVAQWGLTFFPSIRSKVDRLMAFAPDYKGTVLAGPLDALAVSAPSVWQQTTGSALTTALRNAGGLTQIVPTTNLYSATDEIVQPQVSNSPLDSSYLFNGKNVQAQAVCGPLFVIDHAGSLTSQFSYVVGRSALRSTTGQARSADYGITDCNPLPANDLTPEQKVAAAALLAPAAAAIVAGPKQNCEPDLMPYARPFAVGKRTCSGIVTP
Description: (§1) In another embodiment, deactivation of the carboxylesterase enzyme may be achieved by the addition of a small molecule inhibitor, as shown for CALBL and N51032 in Tables 13 and 14, below. […] The small molecule inhibitor and CALBL were added simultaneously at the time t=0. In the following tables, the potential small molecule inhibitors are as follows: • PBA—phenylboronic acid • S-1-DS—Sodium 1-decane-sulfonate • NPB—Neopentylboronic acid • 2MPB—(2-methylpropyl)boronic acid • CBA—cyclohexylboronic acid
(§2) Again, optimization of the level of use for PBA and 2MPB in the latex is explored below, in Tables 15 and 16, respectively, by the same procedure.

N51032 [2] = experiment: Small molecule inhibitors, EA content of latex containing N51032; settings: N51032 50 ppm; inhibitor 1%
Description: as §1
The small molecule inhibitors are added at 1% by weight of solids on weight of wet latex (at the same time as the esterase).
as §2

Compound	Effect of low inhibitor levels on enzyme activity (in words) (N51032 [1])	EA content (column not headed) (N51032 [1]; inhibitor 0.001%, 0 hr)	EA content (column not headed) (N51032 [1]; inhibitor 0.001%, 120 hr)	EA content (column not headed) (N51032 [1]; inhibitor 0.001%, 168 hr)	EA content (column not headed) (N51032 [1]; inhibitor 0.001%, 384 hr)	EA content (column not headed) (N51032 [1]; inhibitor 0.001%, 480 hr)	EA content (column not headed) (N51032 [1]; inhibitor 0.01%, 0 hr)	EA content (column not headed) (N51032 [1]; inhibitor 0.01%, 120 hr)	EA content (column not headed) (N51032 [1]; inhibitor 0.01%, 168 hr)	EA content (column not headed) (N51032 [1]; inhibitor 0.01%, 384 hr)	EA content (column not headed) (N51032 [1]; inhibitor 0.01%, 480 hr)	EA content (column not headed) (N51032 [1]; inhibitor 0.1%, 0 hr)	EA content (column not headed) (N51032 [1]; inhibitor 0.1%, 120 hr)	EA content (column not headed) (N51032 [1]; inhibitor 0.1%, 168 hr)	EA content (column not headed) (N51032 [1]; inhibitor 0.1%, 384 hr)	EA content (column not headed) (N51032 [1]; inhibitor 0.1%, 480 hr)	Effect of low inhibitor levels on enzyme activity (in words) (CALBL)	Inhibition of the carboxylesterase enzyme (in words) (CALBL)	EA content (column not headed) (CALBL; inhibitor 0.001%, 0 hr)	EA content (column not headed) (CALBL; inhibitor 0.001%, 120 hr)	further results
CC(C)CB(O)O [Paint 2MPB, (2-methylpropyl)boronic acid]	sufficient to shut off the enzyme activity	42 ppm	24 ppm	22 ppm	8 ppm	6 ppm	37 ppm	25 ppm	19 ppm	6 ppm	5 ppm	43 ppm	34 ppm	27 ppm	22 ppm	20 ppm	sufficient to shut off the enzyme activity	effective in inhibiting the carboxylesterase enzyme	44	32	EA content (column not headed) (CALBL; inhibitor 0.001%, 168 hr): 23; EA content (column not headed) (CALBL; inhibitor 0.001%, 384 hr): 10; EA content (column not headed) (CALBL; inhibitor 0.001%, 480 hr): 8; EA content (column not headed) (CALBL; inhibitor 0.01%, 0 hr): 43; EA content (column not headed) (CALBL; inhibitor 0.01%, 120 hr): 28; EA content (column not headed) (CALBL; inhibitor 0.01%, 168 hr): 24; EA content (column not headed) (CALBL; inhibitor 0.01%, 384 hr): 13; EA content (column not headed) (CALBL; inhibitor 0.01%, 480 hr): 11; EA content (column not headed) (CALBL; inhibitor 0.1%, 0 hr): 43; EA content (column not headed) (CALBL; inhibitor 0.1%, 120 hr): 34; EA content (column not headed) (CALBL; inhibitor 0.1%, 168 hr): 25; EA content (column not headed) (CALBL; inhibitor 0.1%, 384 hr): 15; EA content (column not headed) (CALBL; inhibitor 0.1%, 480 hr): 13
OB(O)C1CCCCC1 [CBA, cyclohexylboronic acid]																		some ability to inhibit the CALBL enzyme			
CC(C)(C)CB(O)O [NPB, Neopentylboronic acid]																		completely ineffective as an inhibitor			
CCCCCCCCCCS(=O)(=O)[O-].[Na+] [Paint S-1-DS, Sodium 1-decane-sulfonate]																		some ability to inhibit the CALBL enzyme			
OB(O)c1ccccc1 [PBA, phenylboronic acid]	sufficient to shut off the enzyme activity	46 ppm	36 ppm	34 ppm	22 ppm	19 ppm	45 ppm	41 ppm	39 ppm	34 ppm	34 ppm	46 ppm	34 ppm	41 ppm	38 ppm	39 ppm	sufficient to shut off the enzyme activity	effective in inhibiting the carboxylesterase enzyme	48	30	Inhibition of the carboxylesterase enzyme (in words) (N51032 [2]): effective in inhibiting the carboxylesterase enzyme; EA content (column not headed) (CALBL; inhibitor 0.001%, 168 hr): 25; EA content (column not headed) (CALBL; inhibitor 0.001%, 384 hr): 11; EA content (column not headed) (CALBL; inhibitor 0.001%, 480 hr): 9; EA content (column not headed) (CALBL; inhibitor 0.01%, 0 hr): 44; EA content (column not headed) (CALBL; inhibitor 0.01%, 120 hr): 32; EA content (column not headed) (CALBL; inhibitor 0.01%, 168 hr): 26; EA content (column not headed) (CALBL; inhibitor 0.01%, 384 hr): 15; EA content (column not headed) (CALBL; inhibitor 0.01%, 480 hr): 15; EA content (column not headed) (CALBL; inhibitor 0.1%, 0 hr): 39; EA content (column not headed) (CALBL; inhibitor 0.1%, 120 hr): 35; EA content (column not headed) (CALBL; inhibitor 0.1%, 168 hr): 35; EA content (column not headed) (CALBL; inhibitor 0.1%, 384 hr): 29; EA content (column not headed) (CALBL; inhibitor 0.1%, 480 hr): 29
